Numbers after ± are expanded uncertainties.
Assay: refractive index (Na D-line) (dimensionless)
Details: 298.15 K; 101.33 kPa; Liquid; Standard Abbe refractometry

Compound	refractive index
O=Cc1ccco1 [2-furaldehyde]	1.52263 ± 0.001
COC(C)(C)C [2-methoxy-2-methylpropane]	1.36594 ± 0.001
CC(C)=O [acetone]	1.35553 ± 0.001
O [water]	1.33249 ± 0.001

From the NIST ThermoML archive (doi:10.1021/acs.jced.6b00149)
